This is an account of results in ChEMBL document CHEMBL1201862, “PubChem BioAssay data set” (2004).

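A five-concentration, 48-hour dose response in 96-well plates underlies each endpoint, interpolated linearly between surrounding concentrations. Abbreviation: GI50, concentration required for 50% inhibition of growth.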 Activity calls are given as the source filed them. Rule as the data show it: active = GI50 up to about 1.1 µM and inactive = higher.

Experiment in all cases: NCI-60 cell line screen, 48 h
Assay [1] deals with A549.
For assay [2], the system named is HCC 2998.
In assay [3] the test system is HCT-116.
Assay [4] relates to HCT-15.
In assay [5] the test system is HL-60.
Assay [6] has as its system IGROV-1.
In assay [7] the test system is KM12.
In assay [8] the test system is LOX IMVI.
Assay [9] deals with NCI-H460.
Assay [10] concerns NCI-H522.
The test system of assay [11] is OVCAR-3.
The test system of assay [12] is OVCAR-4.
For assay [13], the system named is OVCAR-5.
Assay [14] relates to SF-539.
For assay [15], the system named is SK-OV-3.
Assay [16] deals with SN12C.
The test system of assay [17] is SNB-75.
Assay [18] deals with U-251.
In assay [19] the test system is UACC-257.
The subject of assay [20] is UO-31.

For `Cc1c2cnccc2c(C)c2c1c1ccccc1n2CCCCCCNCc1ccccc1`, the GI50 in assay [1] was 1.91 µM (inactive); in [2], 1.88 µM (inactive); in assay [3], 0.649 µM (active); in assay [4], 1.31 µM; in [5], 1.03 µM (active); in [6], 1.8 µM (inactive). Further, the GI50 in [7] is 1.21 µM (inactive); in assay [8], 1.07 µM (active); in assay [9] it was 0.538 µM (active); in [10], 2.15 µM (inactive); in assay [11] it was 1.87 µM (inactive); in [12] it was 0.787 µM (active). For the same compound, the GI50 was 1.75 µM (inactive) in assay [13]; 1.87 µM (inactive) in [14]; 3.8 µM (inactive) in assay [15]; 1.59 µM (inactive) in [16]; 2.05 µM (inactive) in assay [17]; 2.05 µM (inactive) in assay [18]. The figures for the GI50 in [19] and in assay [20] were 1.96 µM (inactive) and 1.99 µM (inactive), respectively.
For `COC(OC)C1OC(CO)C(n2cc(F)c(=O)[nH]c2=O)C1O` (stereo not drawn), the GI50 in assay [1] was > 100 µM (inactive); in [2] it was > 100 µM (inactive); in assay [3] it was > 100 µM (inactive); in assay [4] it was above 100 µM; in assay [5], > 100 µM (inactive); in [6], > 100 µM (inactive). The GI50 in assay [7], in assay [8], in assay [9], in [10], in [11] and in assay [12] was > 100 µM (inactive) in each case. Further, the GI50 in assay [13], in [14], in assay [15], in assay [16], in assay [17] and in assay [18] was > 100 µM (inactive) throughout. The GI50 in assay [19] and in assay [20] was > 100 µM (inactive) each time.
As to `CC(C)OP(=O)(OC(C)C)/C(I)=N/Nc1ccc([N+](=O)[O-])cc1`, the GI50 is > 100 µM (inactive) in [1]; > 100 µM (inactive) in assay [2]; > 100 µM (inactive) in [3]; above 100 µM in assay [4]; > 100 µM (inactive) in [5]; > 100 µM (inactive) in [6]. In addition, the GI50 in assay [7], in assay [9], in [10], in assay [11], in assay [12] and in [13] was > 100 µM (inactive) throughout. For the same compound, the GI50 in assay [14], in [15], in assay [16], in [17], in assay [18] and in assay [19] was > 100 µM (inactive) each time. Moreover, the GI50 in assay [20] was 98.4 µM (inactive).
`COc1nc2ccc(CNc3ccc(C(=O)NC(CCC(=O)O)C(=O)O)cc3)cc2nc1OC` (stereo not drawn): the GI50 in assay [1] is > 100 µM (inactive); in assay [2] it was > 100 µM (inactive); in assay [4] it was 53.1 µM; in assay [5] it was > 100 µM (inactive); in assay [6] it was > 100 µM (inactive); in assay [7], > 100 µM (inactive). In addition, the GI50 in assay [8] was 32.8 µM (inactive); in assay [9] it was > 100 µM (inactive); in assay [10] it was > 100 µM (inactive); in [11], > 100 µM (inactive); in [12] it was > 100 µM (inactive); in assay [13], > 100 µM (inactive). The GI50 in assay [15], in assay [16], in assay [17], in [18], in assay [19] and in [20] was > 100 µM (inactive) in each case.
Consider `c1ccc(/N=C2\SC3=NCCN3\C2=N/c2ccccc2)cc1`, for which the GI50 in assay [2] was 18.7 µM (inactive); in assay [3], 13.6 µM (inactive); in [4], 10 µM; in assay [6], > 10 µM (inactive); in assay [7] it was 15.9 µM (inactive); in assay [9], 20.7 µM (inactive). The GI50 in assay [10] was 13.6 µM (inactive); in [11] it was 18.1 µM (inactive); in assay [13], 20.1 µM (inactive); in assay [15] it was 34 µM (inactive); in assay [16], 22.8 µM (inactive); in assay [17], 18 µM (inactive). In addition, the GI50 is 17.7 µM (inactive) in assay [18] and 13.5 µM (inactive) in assay [20].
For `COP(=O)(OC)/C(=C/c1cn(C(C)=O)c2ccccc12)NC(C)=O`, the GI50 in assay [1] was > 100 µM (inactive); in assay [2], > 10 µM (inactive); in [3], 26.4 µM (inactive); in assay [4] it was 18.1 µM; in assay [5], 13.1 µM (inactive); in assay [6] it was 54.8 µM (inactive). Further, the GI50 was 13 µM (inactive) in [8]; 52.5 µM (inactive) in assay [9]; > 100 µM (inactive) in [10]; 21.3 µM (inactive) in [11]; 33.2 µM (inactive) in assay [12]; > 100 µM (inactive) in assay [13]. For the same compound, the GI50 in assay [15] is > 100 µM (inactive); in assay [16] it was 31.6 µM (inactive); in [17], 49.2 µM (inactive); in [18], 33.2 µM (inactive); in [19] it was > 100 µM (inactive).
For the compound `c1ccc2cc3n[se]nc3cc2c1`, the GI50 in [1] is 52.7 µM (inactive); in assay [2] it was 38.9 µM (inactive); in [4] it was above 100 µM; in assay [5], > 100 µM (inactive); in [6], 48.8 µM (inactive); in assay [7], > 100 µM (inactive). The GI50 was > 100 µM (inactive) in assay [8]; > 100 µM (inactive) in [10]; > 100 µM (inactive) in assay [12]; > 100 µM (inactive) in assay [13]; 37.6 µM (inactive) in assay [14]; > 100 µM (inactive) in assay [15]. In addition, the GI50 is 91.8 µM (inactive) in assay [16]; 56.9 µM (inactive) in assay [17]; > 100 µM (inactive) in assay [18]; > 100 µM (inactive) in assay [19]; 55.8 µM (inactive) in assay [20].
For the compound `Nc1n[nH]c2nc3ccccc3nc12` [QUINOXALINE1], the GI50 was 61.9 µM (inactive) in assay [1]; > 100 µM (inactive) in [2]; 31 µM (inactive) in assay [3]; 75.2 µM in assay [4]; 34.8 µM (inactive) in assay [5]; 18.1 µM (inactive) in assay [6]. Also, the GI50 was 47 µM (inactive) in assay [8]; 84.7 µM (inactive) in assay [9]; 44.1 µM (inactive) in assay [10]; 62.4 µM (inactive) in assay [11]; > 100 µM (inactive) in assay [12]; 38 µM (inactive) in assay [13]. The GI50 in assay [14] is 61.7 µM (inactive); in assay [15], > 100 µM (inactive); in assay [16] it was > 100 µM (inactive); in assay [17], 37.1 µM (inactive); in assay [18], > 100 µM (inactive); in assay [19], > 100 µM (inactive). Also, the GI50 in assay [20] was 39.6 µM (inactive).
On to `Cc1ccc(S(N)(C(=O)Nc2cccc3ccccc23)[N+](=O)[O-])cc1` (stereo not drawn), for which the GI50 in assay [2] was > 100 µM (inactive); in assay [3], 66.7 µM (inactive); in assay [4], above 100 µM; in [5], 39.3 µM (inactive); in assay [6], > 100 µM (inactive); in [7] it was > 100 µM (inactive). The GI50 in assay [8] is > 100 µM (inactive); in [9], > 100 µM (inactive); in assay [11] it was 61.8 µM (inactive); in assay [12], > 100 µM (inactive); in assay [13], > 100 µM (inactive); in assay [15], > 100 µM (inactive). Besides, the GI50 in assay [16] was > 100 µM (inactive); in assay [17], > 100 µM (inactive); in assay [18], > 100 µM (inactive); in assay [19], > 100 µM (inactive); in assay [20], 35.7 µM (inactive).
For the compound `COc1cc2c(cc1OC)-c1cc3ccccc3c(=O)n1CC2`, the GI50 in assay [1] is 11.4 µM (inactive); in [2] it was 16.6 µM (inactive); in assay [3] it was 10.4 µM (inactive); in assay [6], 19.5 µM (inactive); in assay [7] it was 13.2 µM (inactive); in assay [8], 10.3 µM (inactive). For the same compound, the GI50 was 28.2 µM (inactive) in assay [9]; 16.1 µM (inactive) in assay [10]; 22 µM (inactive) in [11]; 41.6 µM (inactive) in assay [12]; 31.8 µM (inactive) in [13]; 14.1 µM (inactive) in assay [14]. The GI50 was 13.3 µM (inactive) in assay [15]; 26.1 µM (inactive) in assay [16]; 11.9 µM (inactive) in [17]; 16.4 µM (inactive) in assay [18]; 40.8 µM (inactive) in assay [19]; 19.9 µM (inactive) in assay [20].
For the compound `O=C(O)c1cc2sc(C(=O)O)cc2s1`, the GI50 is > 100 µM (inactive) in assay [1]; > 100 µM (inactive) in [3]; above 100 µM in [4]; > 100 µM (inactive) in assay [5]; > 100 µM (inactive) in assay [6]; > 100 µM (inactive) in assay [7]. Further, the GI50 in assay [8], in [9], in assay [10], in [11], in assay [12] and in [13] was > 100 µM (inactive) in each case. Besides, the GI50 in [14], in assay [15], in [16], in assay [17], in assay [18] and in assay [19] was > 100 µM (inactive) each time. The GI50 in [20] is > 10 µM (inactive).
